Tested on: NCIMB 11955
Settings: USM, 1% glucose, 60° C., 250 rpm, grown for 36 hours; flasks with 0, 1, 2, 3 or 4% ethanol; FIG. 1
Procedure: Ethanol tolerance of a wild-type organism (NCIMB 11955) was tested in order to determine the starting point. The organism was grown overnight (LB agar plate, 60° C.) and a colony used to inoculate an overnight culture (100 mL USM, 1% glucose, 60° C., 250 rpm). This culture was then used to inoculate a triplicate series of flasks containing 0, 1, 2, 3, or 4% ethanol which were then grown for 36 hours before the growth was measured (50 mL USM, 1% glucose, 60° C., 250 rpm).

`CCO` [ethanol] was tested, and the “ethanol concentration tolerated (growth measured)” value was at most 4%.
